Activity calls are given as the source filed them.
How the values were obtained:
[1] = growth suppression of PTEN-null colon cells, dose response, cell-based, HCT116 PTEN knockout (AID 1047); format: functional;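 further: HCT116 colon tumor cells with PTEN knocked out; cells exposed to compound for 60 hours before readout; potency for loss of cell viability measured by luminescence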
[2] = biological target: T1, SUMO-activating enzyme (Homo sapiens, UniProt Q9UBT2); test: SUMOylation inhibitor hit validation, confirmation, SUMOylation inhibitor project, biochemical, AlphaScreen (AID 2018); format: functional
[3] = test system: Vero; test: cells; format: functional; conditions: Chlorocebus sabaeus
[4] = growth suppression of beta-catenin-knockout colon cells, dose response, cell-based, HCT116, human colon tumor (AID 1045); format: functional;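 further: HCT116 colon tumor cells with beta catenin knocked out; cells exposed to compound for 60 hours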
[5] = biological target: T2, Mannose-6-phosphate isomerase (Homo sapiens, UniProt P34949); test: human PMI inhibitors, high substrate, primary screen, biochemical, fluorescence intensity, high mannose 6-phosphate (AID 1220)
T2 sequence (P34949 whole entry): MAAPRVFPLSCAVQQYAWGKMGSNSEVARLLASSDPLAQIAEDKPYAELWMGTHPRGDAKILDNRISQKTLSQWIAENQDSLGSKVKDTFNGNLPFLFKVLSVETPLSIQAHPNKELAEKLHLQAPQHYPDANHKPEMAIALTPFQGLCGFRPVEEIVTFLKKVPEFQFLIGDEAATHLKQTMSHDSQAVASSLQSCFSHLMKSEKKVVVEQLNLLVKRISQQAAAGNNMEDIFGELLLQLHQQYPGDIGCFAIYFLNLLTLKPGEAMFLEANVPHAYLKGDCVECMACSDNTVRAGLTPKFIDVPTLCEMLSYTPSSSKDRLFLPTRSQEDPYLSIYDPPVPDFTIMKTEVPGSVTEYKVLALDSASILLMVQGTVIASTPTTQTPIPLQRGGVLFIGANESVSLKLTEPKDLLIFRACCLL

[6] = Luminescence Cell-Based Dose Retest to Confirm Inhibitors of Cancer Stem Cells. [Related pubchem assays (depositor defined):AID2717, AID2721]; format: functional; conditions: Homo sapiens
[7] = biological target: T1, SUMO-activating enzyme; test: inhibitors of in vitro SUMOylation cascade, primary screen, biochemical, HTRF, uHTS (AID 2006); format: protein-complex assay
[8] = test system: H9c2; test: cells; format: functional, cell-based; conditions: Rattus norvegicus, H9c2, Myocardium;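 further: confirmatory concentration-response retest of ultra-high-throughput screening hits for modulation of myocardial damage; cell death induced by hydrogen peroxide oxidative stress; compound pretreatment for 60 min then peroxide exposure for 2 h; potency is for protecting the cells against peroxide damage rather than for killing them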
[9] = biological target: T2, Mannose-6-phosphate isomerase; test: inhibitors of human PMI, primary screen, biochemical, fluorescence intensity, coupled assay (AID 1209)
[10] = biological target: T3, RNA-binding protein pos-1 (Caenorhabditis elegans, UniProt G5EF15); test: inhibitors of POS-1/mex-3 RNA binding, dose response, biochemical, fluorescence polarization (AID 1964);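 further: purified POS-1 fused to maltose binding protein made in E. coli; potency of compounds blocking POS-1 binding to fluorescent RNA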
T3 sequence (G5EF15 whole entry): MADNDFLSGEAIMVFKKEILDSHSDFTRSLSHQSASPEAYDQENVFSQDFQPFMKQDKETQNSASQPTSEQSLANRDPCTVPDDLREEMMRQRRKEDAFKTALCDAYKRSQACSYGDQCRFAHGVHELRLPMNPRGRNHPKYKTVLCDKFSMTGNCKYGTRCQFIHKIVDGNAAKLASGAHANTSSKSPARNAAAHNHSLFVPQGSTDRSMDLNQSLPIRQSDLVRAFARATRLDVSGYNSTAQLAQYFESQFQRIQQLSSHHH

[11] = biological target: T4, Zinc finger protein mex-5 (Caenorhabditis elegans, UniProt Q9XUB2); test: MEX-5/TCR-2 RNA interaction inhibitors, dose response, biochemical, C. elegans, fluorescence polarization (AID 1960)
T4 sequence (Q9XUB2 whole entry): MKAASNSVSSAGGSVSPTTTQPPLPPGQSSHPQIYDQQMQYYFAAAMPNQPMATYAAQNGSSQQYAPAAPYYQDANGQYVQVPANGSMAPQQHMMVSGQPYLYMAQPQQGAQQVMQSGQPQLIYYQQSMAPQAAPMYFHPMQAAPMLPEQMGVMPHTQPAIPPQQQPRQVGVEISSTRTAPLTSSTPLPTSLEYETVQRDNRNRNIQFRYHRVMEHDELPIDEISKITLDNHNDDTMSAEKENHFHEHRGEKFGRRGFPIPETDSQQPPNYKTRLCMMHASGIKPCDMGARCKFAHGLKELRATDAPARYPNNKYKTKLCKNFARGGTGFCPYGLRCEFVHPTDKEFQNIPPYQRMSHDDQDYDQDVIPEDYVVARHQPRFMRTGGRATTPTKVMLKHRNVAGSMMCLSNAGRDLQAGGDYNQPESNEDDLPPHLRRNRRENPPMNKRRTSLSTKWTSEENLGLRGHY

[12] = enhancers of respiration in Yfh1-depleted yeast, dose response, Friedreich's ataxia, plus single-dose screen (AID 1465); format: functional;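 further: yeast depleted of Yfh1p frataxin homolog grown on glycerol needing respiration; WST-1 tetrazolium dye reduction as measure of cellular dehydrogenase metabolic activity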
[13] = biological target: Large T antigen (Simian virus 40, UniProt P03070); format: functional, Betapolyomavirus macacae;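 further: Confirmatory-stage PubChem screen for compounds that inhibit SV40 T antigen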
[14] = biological target: Peroxisome proliferator-activated receptor gamma/Nuclear receptor coactivator 2 (Homo sapiens, UniProt P37231); format: functional;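 further: agonist potency for raising coactivator recruitment to the receptor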
[15] = biological target: Peroxisome proliferator-activated receptor gamma/Nuclear receptor coactivator 3 (Homo sapiens, UniProt P37231); format: functional;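 further: agonist potency for raising coactivator recruitment to the receptor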
[16] = biological target: Peroxisome proliferator-activated receptor gamma/Nuclear receptor coactivator 1 (Homo sapiens, UniProt P37231); format: functional;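 further: agonist potency as compounds enhance coactivator SRC-1 recruitment to PPARgamma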
[17] = biological target: T5, Polyadenylate-binding protein 1 (Homo sapiens, UniProt P11940); test: PABP1 MLLE–PAM2 interaction inhibitors, dose response, miRNA deadenylation inhibitor project, biochemical, fluorescence polarization, Cy5-PAM2 peptide, secondary (AID 602260); format: functional; conditions: read-out: IC50_Mean
[18] = A Cell Based Secondary Assay To Explore Cytotoxicity of Compounds that Sensitize Mycobacterium Tuberculosis to Beta-Lactam Antibiotics.; format: functional
[19] = biological target: T5, Polyadenylate-binding protein 1; test: PABP1 MLLE–PAM2 binding inhibitor potency, dose response, biochemical, fluorescence polarization, FITC-PAM2 peptide (AID 602259); format: functional; conditions: read-out: IC50_Mean
[20] = C. albicans growth with fluconazole, confirmation, fluorescence, retest (AID 2467); format: functional, cell-based
[21] = biological target: Transitional endoplasmic reticulum ATPase (Homo sapiens, UniProt P55072, C522A); test: C522A mutant p97 ATPase inhibitors, dose response, counter-screen for p97 inhibitor project, biochemical, luminescence (AID 1544)
[22] = biological target: T6, Microphthalmia-associated transcription factor (Homo sapiens, UniProt O75030); test: TRPM1 promoter luciferase signal decrease, dose response, MITF inhibitor project, cell-based, SK-MEL-5, cherry-picked, set 3 (AID 493073); format: functional
T6 sequence (O75030 whole entry): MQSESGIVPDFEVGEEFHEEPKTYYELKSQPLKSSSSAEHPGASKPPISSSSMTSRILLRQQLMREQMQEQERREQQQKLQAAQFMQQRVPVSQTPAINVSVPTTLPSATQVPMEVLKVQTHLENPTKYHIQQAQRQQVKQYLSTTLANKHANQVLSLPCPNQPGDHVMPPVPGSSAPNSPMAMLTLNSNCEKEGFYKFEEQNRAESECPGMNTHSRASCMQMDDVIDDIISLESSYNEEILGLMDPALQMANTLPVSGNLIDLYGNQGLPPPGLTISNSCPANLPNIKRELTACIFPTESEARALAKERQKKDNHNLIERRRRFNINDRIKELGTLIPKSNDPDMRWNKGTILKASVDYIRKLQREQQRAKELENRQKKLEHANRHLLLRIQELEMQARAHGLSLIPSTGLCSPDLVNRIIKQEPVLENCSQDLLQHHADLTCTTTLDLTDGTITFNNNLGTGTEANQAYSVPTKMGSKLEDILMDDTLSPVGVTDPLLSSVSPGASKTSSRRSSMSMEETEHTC

[23] = biological target: Transitional endoplasmic reticulum ATPase (Homo sapiens, UniProt P55072); test: p97 ATPase inhibitors, dose response, biochemical (AID 1534)
[24] = NIH-3T3 fibroblast cytotoxicity, dose response, cytotoxicity control, cell-based, fluorescence, Alamar Blue, secondary assay (AID 2327); format: functional;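 further: NIH-3T3 mouse fibroblasts cultured with fluconazole at 8 µg/mL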

T5 sequence (P11940 whole entry): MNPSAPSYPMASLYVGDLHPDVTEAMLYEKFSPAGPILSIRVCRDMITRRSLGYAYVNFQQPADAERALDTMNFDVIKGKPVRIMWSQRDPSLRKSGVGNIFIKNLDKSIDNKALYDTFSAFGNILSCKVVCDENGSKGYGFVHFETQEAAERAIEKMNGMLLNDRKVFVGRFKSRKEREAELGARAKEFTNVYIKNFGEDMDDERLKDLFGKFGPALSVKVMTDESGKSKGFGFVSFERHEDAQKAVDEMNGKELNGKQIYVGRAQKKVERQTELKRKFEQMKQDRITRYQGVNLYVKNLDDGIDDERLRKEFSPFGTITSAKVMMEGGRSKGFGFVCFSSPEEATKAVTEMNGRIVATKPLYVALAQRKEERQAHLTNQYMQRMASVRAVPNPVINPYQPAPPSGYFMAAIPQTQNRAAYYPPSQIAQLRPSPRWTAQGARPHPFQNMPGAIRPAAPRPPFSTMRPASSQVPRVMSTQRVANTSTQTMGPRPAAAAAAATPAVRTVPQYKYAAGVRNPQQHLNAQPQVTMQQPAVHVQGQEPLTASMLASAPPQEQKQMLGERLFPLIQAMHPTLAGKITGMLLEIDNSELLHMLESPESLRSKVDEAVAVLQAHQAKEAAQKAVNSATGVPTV
Transitional endoplasmic reticulum ATPase (Homo sapiens, UniProt P55072), sequence (P55072 whole entry): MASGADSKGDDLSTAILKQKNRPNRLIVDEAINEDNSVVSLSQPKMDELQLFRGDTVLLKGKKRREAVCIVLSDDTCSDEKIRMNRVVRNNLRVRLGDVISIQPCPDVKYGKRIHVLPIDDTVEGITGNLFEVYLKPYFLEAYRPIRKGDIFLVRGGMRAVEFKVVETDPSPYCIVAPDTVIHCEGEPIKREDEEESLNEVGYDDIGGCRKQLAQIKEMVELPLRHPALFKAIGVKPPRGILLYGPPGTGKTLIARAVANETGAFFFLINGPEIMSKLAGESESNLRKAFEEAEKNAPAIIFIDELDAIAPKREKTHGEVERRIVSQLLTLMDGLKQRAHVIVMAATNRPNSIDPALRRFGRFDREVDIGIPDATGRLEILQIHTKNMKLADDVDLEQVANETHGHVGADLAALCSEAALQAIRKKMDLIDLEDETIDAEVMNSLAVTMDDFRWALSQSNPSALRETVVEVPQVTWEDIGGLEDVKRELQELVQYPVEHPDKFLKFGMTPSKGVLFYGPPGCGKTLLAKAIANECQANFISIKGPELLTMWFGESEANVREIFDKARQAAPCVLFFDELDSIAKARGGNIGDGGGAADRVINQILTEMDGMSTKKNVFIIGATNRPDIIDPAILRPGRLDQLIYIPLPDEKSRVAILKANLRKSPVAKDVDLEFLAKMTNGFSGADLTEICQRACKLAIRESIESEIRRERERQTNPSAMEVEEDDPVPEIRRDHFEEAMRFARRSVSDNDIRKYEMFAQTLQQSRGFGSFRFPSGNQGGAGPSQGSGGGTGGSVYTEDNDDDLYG
T1 sequence (Q9UBE0 whole entry): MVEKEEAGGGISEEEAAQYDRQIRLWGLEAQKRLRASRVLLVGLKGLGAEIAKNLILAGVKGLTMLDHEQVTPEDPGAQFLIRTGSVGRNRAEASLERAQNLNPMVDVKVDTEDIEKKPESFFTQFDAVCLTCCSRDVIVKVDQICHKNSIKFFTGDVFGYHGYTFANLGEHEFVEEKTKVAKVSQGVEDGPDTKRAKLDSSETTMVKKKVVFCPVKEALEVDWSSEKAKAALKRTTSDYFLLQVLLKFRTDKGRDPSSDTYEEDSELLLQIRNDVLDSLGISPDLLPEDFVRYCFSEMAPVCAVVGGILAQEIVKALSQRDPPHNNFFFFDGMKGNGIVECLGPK
T1 sequence (Q9UBT2 whole entry): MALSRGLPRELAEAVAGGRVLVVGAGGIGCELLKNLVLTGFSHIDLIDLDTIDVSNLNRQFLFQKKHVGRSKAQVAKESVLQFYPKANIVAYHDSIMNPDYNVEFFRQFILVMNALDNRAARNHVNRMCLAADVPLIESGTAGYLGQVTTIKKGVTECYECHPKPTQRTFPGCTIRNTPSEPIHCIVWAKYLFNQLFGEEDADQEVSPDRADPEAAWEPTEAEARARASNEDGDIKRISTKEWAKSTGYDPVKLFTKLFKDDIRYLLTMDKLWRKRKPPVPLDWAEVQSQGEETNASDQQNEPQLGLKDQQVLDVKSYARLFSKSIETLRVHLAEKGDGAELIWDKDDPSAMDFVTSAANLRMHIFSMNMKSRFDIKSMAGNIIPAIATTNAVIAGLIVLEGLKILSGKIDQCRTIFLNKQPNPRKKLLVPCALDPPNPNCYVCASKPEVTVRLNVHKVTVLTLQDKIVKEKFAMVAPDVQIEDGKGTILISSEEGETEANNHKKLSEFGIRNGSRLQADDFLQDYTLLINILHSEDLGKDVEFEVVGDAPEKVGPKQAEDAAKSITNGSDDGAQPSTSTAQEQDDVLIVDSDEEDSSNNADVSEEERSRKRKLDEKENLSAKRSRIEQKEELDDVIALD
Transitional endoplasmic reticulum ATPase (Homo sapiens, UniProt P55072, C522A), sequence (P55072 2-806 C522A limits assumed): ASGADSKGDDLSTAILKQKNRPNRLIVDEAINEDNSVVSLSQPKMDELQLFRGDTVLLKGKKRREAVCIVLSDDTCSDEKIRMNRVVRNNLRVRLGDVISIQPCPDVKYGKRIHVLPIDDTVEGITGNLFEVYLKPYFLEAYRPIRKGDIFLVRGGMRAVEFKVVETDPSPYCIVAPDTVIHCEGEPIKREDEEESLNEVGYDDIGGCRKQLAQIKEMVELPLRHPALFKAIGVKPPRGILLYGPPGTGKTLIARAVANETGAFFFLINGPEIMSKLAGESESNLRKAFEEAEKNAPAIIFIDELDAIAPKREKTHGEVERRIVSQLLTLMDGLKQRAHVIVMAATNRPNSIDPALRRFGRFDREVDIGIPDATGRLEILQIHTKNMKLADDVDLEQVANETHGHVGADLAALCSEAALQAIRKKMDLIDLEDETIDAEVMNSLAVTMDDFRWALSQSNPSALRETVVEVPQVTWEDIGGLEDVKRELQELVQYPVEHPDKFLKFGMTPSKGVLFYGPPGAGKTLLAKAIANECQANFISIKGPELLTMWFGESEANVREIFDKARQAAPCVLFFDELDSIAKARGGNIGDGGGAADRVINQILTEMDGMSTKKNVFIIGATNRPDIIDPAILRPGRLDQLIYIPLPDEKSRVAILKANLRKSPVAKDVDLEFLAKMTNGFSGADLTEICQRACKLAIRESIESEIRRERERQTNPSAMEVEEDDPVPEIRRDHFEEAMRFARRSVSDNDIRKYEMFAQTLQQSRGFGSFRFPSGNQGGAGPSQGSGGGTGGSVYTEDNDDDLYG
Large T antigen, sequence (P03070 whole entry): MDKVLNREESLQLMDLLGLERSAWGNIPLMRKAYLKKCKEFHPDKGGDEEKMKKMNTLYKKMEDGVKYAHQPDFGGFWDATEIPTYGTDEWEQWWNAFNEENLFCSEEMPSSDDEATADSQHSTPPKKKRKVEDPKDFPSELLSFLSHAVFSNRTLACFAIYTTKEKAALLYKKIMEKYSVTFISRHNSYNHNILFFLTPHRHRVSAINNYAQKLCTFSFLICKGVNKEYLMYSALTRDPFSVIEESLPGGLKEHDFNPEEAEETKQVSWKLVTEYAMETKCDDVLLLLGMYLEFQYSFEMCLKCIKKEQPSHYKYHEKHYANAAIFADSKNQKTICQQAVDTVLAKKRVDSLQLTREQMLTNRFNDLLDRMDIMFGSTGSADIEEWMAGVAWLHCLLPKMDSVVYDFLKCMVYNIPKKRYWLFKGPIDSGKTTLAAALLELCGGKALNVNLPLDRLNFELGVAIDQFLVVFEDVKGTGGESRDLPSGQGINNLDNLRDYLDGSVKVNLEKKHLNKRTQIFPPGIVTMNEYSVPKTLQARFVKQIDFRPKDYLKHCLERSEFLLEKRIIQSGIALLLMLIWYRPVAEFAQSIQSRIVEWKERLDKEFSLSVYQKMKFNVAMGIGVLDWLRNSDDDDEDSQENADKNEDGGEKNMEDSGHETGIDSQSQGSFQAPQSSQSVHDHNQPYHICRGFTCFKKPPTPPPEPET

SMILES: CCOC(=O)c1c2ccc(OCC(=O)N/N=C/c3ccc(C)cc3)cc2n2ccccc12
- EC50 [1]: 5.25 µM (active)
- IC50 [2]: 17.9 µM (active)
- CC50 [3]: > 25 µM (active)
- EC50 [4]: 6.24 µM (active)
- IC50 [5]: 13.1 µM (active)
- AC50 [6]: 5.11 µM (active)
- IC50 [7]: 7.01 µM (active)
- IC50 [8]: 40.5 µM (inactive)
- IC50 [9]: > 50 µM (not active)
- EC50 [10]: > 300 µM (not active)
- EC50 [11]: > 300 µM (not active)

SMILES: Sc1nnc(CSCc2ccc(Cl)cc2Cl)n1-c1ccccc1
- EC50 [12]: > 100 µM (active)

SMILES: Nc1nc2ccc(N3CCOCC3)cc2s1
- IC50 [13]: 7.66 µM (active)
- EC50 [14]: > 79.4 µM (not active)
- EC50 [15]: > 79.4 µM (not active)
- EC50 [16]: > 79.4 µM (not active)

SMILES: Cc1noc(/C=C/Nc2ccc(F)cc2F)c1[N+](=O)[O-]
- IC50 [17]: 35.7 µM (inactive)
- CC50 [18]: 39 µM (active)
- IC50 [19]: 27.5 µM (inactive)

SMILES: Cc1[nH]c2ccccc2c1C(=O)CCl
- EC50 [20]: 0.497 µM (active)
- IC50 [21]: > 50 µM (not active)
- AC50 [22]: 6.78 µM (active)
- IC50 [23]: > 50 µM (not active)
- EC50 [24]: 8.72 µM (inconclusive)

SMILES: Cc1ccccc1C(=O)Nc1nc2c(C)csc2c(=O)s1
- IC50 [21]: > 50 µM (not active)
- IC50 [23]: > 50 µM (not active)

From ChEMBL document CHEMBL1201862, “PubChem BioAssay data set” (2004)
